Counter-ions that a name gives are not always drawn.
Columns and labels:
[1] = molecular target: human FGFR-1 (Homo sapiens, UniProt P11362); assay: FGFR-1 high ATP kinase assay (TR-FRET); assay type: biochemical; conditions: 2 mM ATP; 15 min pre-incubation with enzyme; compounds of the invention
[2] = molecular target: human FGFR-3 (Homo sapiens (Human), UniProt P22607); assay: FGFR-3 kinase assay (TR-FRET); assay type: biochemical; conditions: 10 μM ATP
[3] = 15 min pre-incubation with enzyme, compounds of the invention
[4] = 15 min pre-incubation with enzyme, compounds of the invention, dihydrochloride
[5] = comparative prior art compounds, labels are Example No. in WO 2007/061737

Chain of human FGFR-3 (P22607 397-806): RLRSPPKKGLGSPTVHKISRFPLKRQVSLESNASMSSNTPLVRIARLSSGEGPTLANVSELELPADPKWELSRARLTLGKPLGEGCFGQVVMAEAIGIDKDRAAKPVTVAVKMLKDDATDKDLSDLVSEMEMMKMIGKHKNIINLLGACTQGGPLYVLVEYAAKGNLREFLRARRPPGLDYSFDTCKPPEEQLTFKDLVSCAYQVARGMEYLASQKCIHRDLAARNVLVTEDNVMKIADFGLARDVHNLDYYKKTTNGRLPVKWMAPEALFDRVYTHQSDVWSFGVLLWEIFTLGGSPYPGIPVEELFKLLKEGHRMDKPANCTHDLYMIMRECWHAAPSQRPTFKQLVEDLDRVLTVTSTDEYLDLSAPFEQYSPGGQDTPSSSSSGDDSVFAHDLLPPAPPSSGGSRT
Chain of human FGFR-1 (P11362 22-822 limits assumed): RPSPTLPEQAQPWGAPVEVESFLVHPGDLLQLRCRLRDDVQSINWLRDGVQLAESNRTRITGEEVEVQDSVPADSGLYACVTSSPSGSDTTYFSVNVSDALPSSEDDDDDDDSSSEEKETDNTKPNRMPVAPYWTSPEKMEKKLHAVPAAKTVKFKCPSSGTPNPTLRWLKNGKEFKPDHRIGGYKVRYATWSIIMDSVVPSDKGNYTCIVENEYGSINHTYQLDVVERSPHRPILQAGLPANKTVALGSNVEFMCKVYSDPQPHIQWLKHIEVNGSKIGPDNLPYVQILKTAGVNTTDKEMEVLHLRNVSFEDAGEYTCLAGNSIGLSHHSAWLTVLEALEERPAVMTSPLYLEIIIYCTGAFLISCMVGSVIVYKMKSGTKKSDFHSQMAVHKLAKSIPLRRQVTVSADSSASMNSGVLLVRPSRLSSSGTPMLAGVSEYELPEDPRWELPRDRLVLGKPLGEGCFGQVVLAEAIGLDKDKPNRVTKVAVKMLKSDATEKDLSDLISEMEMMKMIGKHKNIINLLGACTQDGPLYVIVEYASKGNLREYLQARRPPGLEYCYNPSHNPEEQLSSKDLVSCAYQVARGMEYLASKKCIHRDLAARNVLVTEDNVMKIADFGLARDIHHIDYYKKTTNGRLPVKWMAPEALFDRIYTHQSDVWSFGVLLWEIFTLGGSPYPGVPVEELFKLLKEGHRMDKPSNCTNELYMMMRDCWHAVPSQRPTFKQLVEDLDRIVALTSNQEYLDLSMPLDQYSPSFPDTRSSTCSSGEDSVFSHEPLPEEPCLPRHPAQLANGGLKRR

Row | SMILES | IC50 [1] [nM] | IC50 [2, 3] [nM] | IC50 [2, 4] [nM] | IC50 [2, 5] [nM]
1 | COc1cc(C)cc2cc(-c3c(CNCC(C)(C)O)c(CN4CCN(C(C)=O)CC4)n4ncnc(N)c34)sc12 [Example 57, 1-(4-{[4-Amino-6-{[(2-hydroxy-2-methylpropyl)amino]methyl}-5-(7-methoxy-5-methyl-1-benzothiophen-2-yl)pyrrolo[2,1-f][1,2,4]triazin-7-yl]methyl}piperazin-1-yl)ethanone] | 3.2 | 1.8 |  | 
2 | COc1cc(C)cc2cc(-c3c(CN[C@H]4CCNC4=O)c(CN4CCOCC4)n4ncnc(N)c34)sc12 [Example 51, (3S)-3-({[4-Amino-5-(7-methoxy-5-methyl-1-benzothiophen-2-yl)-7-(morpholin-4-ylmethyl)pyrrolo[2,1-f][1,2,4]triazin-6-yl]methyl}amino)pyrrolidin-2-one] | 4.4 | 3.9 |  | 
3 | CCOCc1c(-c2cc3cc(C)cc(OC)c3s2)c2c(N)ncnn2c1CN1CCS(=O)(=O)CC1 [Example 99] | 24.8 | 36.9 |  | 
4 | COc1cc(C)cc2cc(-c3c(COCCO)c(CN4CCNC(=O)C4)n4ncnc(N)c34)sc12 [Example 21, 4-({4-Amino-6-[(2-hydroxyethoxy)methyl]-5-(7-methoxy-5-methyl-1-benzothiophen-2-yl)pyrrolo-[2,1-f][1,2,4]triazin-7-yl}methyl)piperazin-2-one formiate] | 4.2 | 13 |  | 
5 | COc1cc(C)cc2cc(-c3c(CNC(C)=O)c(CN4CCN(C=O)CC4)n4ncnc(N)c34)sc12 [Example 65, N-({4-Amino-7-[(4-formylpiperazin-1-yl)methyl]-5-(7-methoxy-5-methyl-1-benzothiophen-2-yl)pyrrolo[2,1-f][1,2,4]triazin-6-yl}methyl)acetamide formiate] | 5.6 | 3.1 |  | 
6 | COc1cc(C)cc2cc(-c3c(CO)c(CN4CCNC(=O)C4)n4ncnc(N)c34)sc12 [Example 13, 4-{[4-Amino-6-(hydroxymethyl)-5-(7-methoxy-5-methyl-1-benzothiophen-2-yl)pyrrolo[2,1-f]-[1,2,4]triazin-7-yl]methyl}piperazin-2-one] | 2.5 | 10 |  | 
7 | COc1cc(C)cc2cc(-c3c(CN4CCNC(=O)C4)c(C)n4ncnc(N)c34)sc12 [Example 76, 4-{[4-Amino-5-(7-methoxy-5-methyl-1-benzothiophen-2-yl)-7-methylpyrrolo[2,1-f][1,2,4]triazin-6-yl]methyl}piperazin-2-one] | 2.8 | 1.4 |  | 
8 | CCOCc1c(-c2cc3cc(C)cc(OC)c3s2)c2c(N)ncnn2c1CN1CC(F)(F)C1 [Example 102] | 39.2 | 39.8 |  | 
9 | COC(=O)c1c(-c2cc3cc(C)cc(OC)c3s2)c2c(N)ncnn2c1C(=O)N1CCNCC1 [Example 60, Methyl 4-amino-5-(7-methoxy-5-methyl-1-benzothiophen-2-yl)-7-(piperazin-1-ylcarbonyl)pyrrolo-[2,1-f][1,2,4]triazine-6-carboxylate bis(formiate)] | 16.2 | 77.9 |  | 
10 | COc1cc(C)cc2cc(-c3c(COCC(F)(F)F)c(CN4CCNCC4)n4ncnc(N)c34)sc12 [Example 29, 5-(7-Methoxy-5-methyl-1-benzothiophen-2-yl)-7-(piperazin-1-ylmethyl)-6-[(2,2,2-trifluoroethoxy)methyl]pyrrolo[2,1-f][1,2,4]triazin-4-amine formiate] | 1.6 | 2.5 |  | 
11 | CCOCc1c(-c2cc3cc(C)cc(OC)c3s2)c2c(N)ncnn2c1CN1CCNC(=O)C1(C)C [Example 95] | 17 | 28.7 |  | 
12 | CCOCc1c(-c2cc3cc(C)cc(OC)c3s2)c2c(N)ncnn2c1CN1CCNC(=O)C1 [Example 6, 4-{[4-Amino-6-(ethoxymethyl)-5-(7-methoxy-5-methyl-1-benzothiophen-2-yl)pyrrolo-[2,1-f][1,2,4]triazin-7-yl]methyl}piperazin-2-one dihydrochloride] |  |  | 28.5 | 
13 | COc1cc(C)cc2cc(-c3c(CNCC(C)(C)O)c(Cl)n4ncnc(N)c34)sc12 [Example 81, 1-({[4-Amino-7-chloro-5-(7-methoxy-5-methyl-1-benzothiophen-2-yl)pyrrolo[2,1-f][1,2,4]triazin-6-yl]methyl}amino)-2-methylpropan-2-ol formiate] | 1.9 | 0.5 |  | 
14 | COc1cc(C)cc2cc(-c3c(CNCC(C)O)c(CN4CCOCC4)n4ncnc(N)c34)sc12 (racemic) [Example 53, rac-1-({[4-Amino-5-(7-methoxy-5-methyl-1-benzothiophen-2-yl)-7-(morpholin-4-ylmethyl)pyrrolo[2,1-f][1,2,4]triazin-6-yl]methyl}amino)propan-2-ol] | 3.9 | 2.5 |  | 
15 | COc1cc(C)cc2cc(-c3c(CNCC(C)(C)O)c(CN4CCOCC4)n4ncnc(N)c34)sc12 [Example 54, 1-({[4-Amino-5-(7-methoxy-5-methyl-1-benzothiophen-2-yl)-7-(morpholin-4-ylmethyl)pyrrolo-[2,1-f][1,2,4]triazin-6-yl]methyl}amino)-2-methylpropan-2-ol] | 11.2 | 6.8 |  | 
16 | CCOCc1c(-c2cc3cc(C)cc(OC)c3s2)c2c(N)ncnn2c1C(C)O (centres unmarked) [Example 90, 1-[4-Amino-6-(ethoxymethyl)-5-(7-methoxy-5-methyl-1-benzothiophen-2-yl)pyrrolo[2,1-f][1,2,4]-triazin-7-yl]ethanol] | 9.9 | 11 |  | 

Row | SMILES | IC50 [1] [nM] | IC50 [2, 3] [nM] | IC50 [2, 4] [nM] | IC50 [2, 5] [nM]
17 | COc1cc(C)cc2cc(-c3c(CO)c(C(C)(C)O)n4ncnc(N)c34)sc12 [Example 73, 2-[4-Amino-6-(hydroxymethyl)-5-(7-methoxy-5-methyl-1-benzothiophen-2-yl)pyrrolo[2,1-f]-[1,2,4]triazin-7-yl]propan-2-ol] | 4.4 | 12.2 |  | 
18 | COc1cc(C)cc2cc(-c3c(CO)c(C)n4ncnc(N)c34)sc12 [Example 75, [4-Amino-5-(7-methoxy-5-methyl-1-benzothiophen-2-yl)-7-methylpyrrolo[2,1-f][1,2,4]triazin-6-yl]methanol] | 4.1 | 19.8 |  | 
19 | COc1cc(C)cc2cc(-c3c(COc4ccccc4)c(CN4CCNCC4)n4ncnc(N)c34)sc12 [Example 35, 5-(7-Methoxy-5-methyl-1-benzothiophen-2-yl)-6-(phenoxymethyl)-7-(piperazin-1-ylmethyl)pyrrolo[2,1-f][1,2,4]triazin-4-amine bis(formiate)] | 61.3 | 65.4 |  | 
20 | CCOCc1c(-c2cc3cc(C)cc(OC)c3s2)c2c(N)ncnn2c1CN1CCN(C(C)=O)CC1 [Example 20, 1-(4-{[4-Amino-6-(ethoxymethyl)-5-(7-methoxy-5-methyl-1-benzothiophen-2-yl)pyrrolo[2,1-f]-[1,2,4]triazin-7-yl]methyl}piperazin-1-yl)ethanone] | 25 | 26.1 |  | 
21 | COc1cc(C)cc2cc(-c3c(CNCC(C)(C)O)c(Cl)n4ncnc(N)c34)sc12 [Example 82, 1-({[4-Amino-7-chloro-5-(7-methoxy-5-methyl-1-benzothiophen-2-yl)pyrrolo[2,1-f][1,2,4]triazin-6-yl]methyl}amino)-2-methylpropan-2-ol] | 3.4 | 16 |  | 
22 | COc1cc(C)cc2cc(-c3c(COCC(N)=O)c(CN4CCNCC4)n4ncnc(N)c34)sc12 [Example 33, 2-{[4-Amino-5-(7-methoxy-5-methyl-1-benzothiophen-2-yl)-7-(piperazin-1-ylmethyl)pyrrolo-[2,1-f][1,2,4]triazin-6-yl]methoxy}acetamide] | 1 | 7.2 |  | 
23 | Nc1nccn2c(C3CCC3)nc(-c3cc4cccc(Cl)c4s3)c12 [Example 233 in WO 2007/061737, reference compound] |  |  |  | 10000
24 | COc1cc(C)cc2cc(-c3c(CN4CCNC(=O)C4)c(CN4CCN(C=O)CC4)n4ncnc(N)c34)sc12 [Example 58, 4-({4-Amino-5-(7-methoxy-5-methyl-1-benzothiophen-2-yl)-6-[(3-oxopiperazin-1-yl)methyl]-pyrrolo[2,1-f][1,2,4]triazin-7-yl}methyl)piperazine-1-carbaldehyde formiate] | 6.8 | 9.8 |  | 
25 | COc1cc(C)cc2cc(-c3c(CNC4CCC4)c(CN4CCNCC4)n4ncnc(N)c34)sc12 [Example 44, 6-[(Cyclobutylamino)methyl]-5-(7-methoxy-5-methyl-1-benzothiophen-2-yl)-7-(piperazin-1-ylmethyl)pyrrolo[2,1-f][1,2,4]triazin-4-amine trihydrochloride] |  | 6.1 |  | 
26 | COCc1c(-c2cc3cc(C)cc(OC)c3s2)c2c(N)ncnn2c1CN[C@@H]1CCNC1=O [Example 3, (3R)-3-({[4-Amino-6-(methoxymethyl)-5-(7-methoxy-5-methyl-1-benzothiophen-2-yl)pyrrolo-[2,1-f][1,2,4]triazin-7-yl]methyl}amino)pyrrolidin-2-one dihydrochloride] |  |  | 46.6 | 
27 | COCc1c(-c2cc3cc(C)cc(OC)c3s2)c2c(N)ncnn2c1CN[C@@H]1CCNC1=O [Example 4, (3R)-3-({[4-Amino-6-(methoxymethyl)-5-(7-methoxy-5-methyl-1-benzothiophen-2-yl)pyrrolo-[2,1-f][1,2,4]triazin-7-yl]methyl}amino)pyrrolidin-2-one] |  | 24.8 |  | 
28 | CCOCc1c(-c2cc3cc(C)cc(OC)c3s2)c2c(N)ncnn2c1CN1CCNC(=O)C1 [Example 5, 4-{[4-Amino-6-(ethoxymethyl)-5-(7-methoxy-5-methyl-1-benzothiophen-2-yl)pyrrolo[2,1-f]-[1,2,4]triazin-7-yl]methyl}piperazin-2-one] |  | 12.1 |  | 
29 | Cc1c(-c2nc(C3CCC3)n3ccnc(N)c23)sc2ccccc12 [Example 210 in WO 2007/061737, reference compound] |  |  |  | 554
30 | CCOCc1c(-c2cc3cc(C)cc(OC)c3s2)c2c(N)ncnn2c1C(=O)N1CCC(O)C1 (centres unmarked) [Example 118] | 6.8 |  |  | 
31 | COCc1c(-c2cc3cc(C)cc(OC)c3s2)c2c(N)ncnn2c1CN1CCNCC1 [Example 17, 6-(Methoxymethyl)-5-(7-methoxy-5-methyl-1-benzothiophen-2-yl)-7-(piperazin-1-ylmethyl)pyrrolo[2,1-f][1,2,4]triazin-4-amine formiate] | 0.9 |  |  | 

From patent publication US9206184B2, “Disubstituted benzothienyl-pyrrolotriazines and uses thereof” (BAYER INTELLECTUAL PROPERTY GmbH, priority 2011, dated 2015)
